# Assays:
# [1] = tested on: c-Myc, AKT, ERK1/2 in LNCaP tumor xenografts; experiment: Western blot of c-Myc and signaling proteins in LNCaP-xenografted tumors (FIG. 14); format: in vivo, mouse; details: LNCaP xenograft; HS1002 1 mg/kg/day, LA 0.1 mg/kg/day s.c.
# Method: The cells and tumor tissues were homogenized using the PRO-PREP™ extraction solution (iNtRON Biotechnology, Seongnam, Korea). After incubation, the homogenate was centrifuged at 16,000×g for 20 min at 4° C., and the supernatant was collected for western blot analysis. Subsequently, an equivalent quantity of protein was separated using sodium dodecyl sulfate polyacrylamide gels and transferred onto a polyvinylidene difluoride (PVDF) membrane. The PVDF membranes were incubated with the primary antibodies overnight at 4° C., washed with tris-buffered saline, and then incubated with HRP-conjugated anti-mouse or anti-rabbit antibodies. The bands were visualized using a ChemiDoc imaging system (Bio-Rad, Hercules, CA, USA). The band intensities were determined using an Image J software.
# All mice were purchased from Central Lab Animal Inc. ([…]). They were raised in a 12 h environmental light/dark cycle with controlled temperature (22±2° C.) conditions. The experimental protocol was approved by the Sungkyunkwan University Institutional Animal Care and Use Committee (SKKUIACUC2021-06-27-1, SKKUIACUC2023-01-07-1). For the establishment of tumors, LNCaP (1×10^7), MC38 (2×10^5), and 4T1 (1×10^6) suspended in serum-free media containing 50% Matrigel was subcutaneously administered in the right flank of mice, respectively. The tumor volumes (V) were calculated using a caliper and the standard equation: V (mm^3)=0.52 (ab^2) (a=length, b=width). Once the tumor reached 100-200 mm^3, the mice were randomly divided into different groups and subcutaneously injected with a vehicle or each peptide every day.
# To investigate the anticancer effect of HS1002, the present inventors observed the volume of cancer cells after transplanting the cancer cells into experimental animals. Specifically, mice (4-week-old male BALB/c nude mice; Central Lab. Animal Inc., Seoul, Korea) were prepared, and tumor cells (1×10^7 LNCaP cells) suspended in 1 mL of a serum-free medium containing 50% Matrigel were percutaneously injected into the upper flank of each nude mouse. When the tumor cell volume reached about 200 mm^3, the mice were randomly assigned to a vehicle control group, a leuprolide acetate-treated group, and test groups (GV1001-treated group and HS1002-treated group), respectively. Leuprolide acetate (0.1 mg/kg/day) and GV1001 and HS1002 (1 mg/kg/day) were injected subcutaneously for 13 days.
# [2] = tested on: prostate cancer cell line (LNCaP); experiment: MTT cytotoxicity comparison of peptides at the same concentration (FIG. 6); format: cell-based, human; details: 300 μM, 48 h, 1% FBS, among GV1001, GnRH, HS1001, HS1002
# Method: The prostate cancer cell line (LNCaP), in which the reactivity of HS1002 to hTERT had been best, were used to investigate the cytotoxic effects of GV1001, GnRH, HS1001, and HS1002 under conditions of 1,500 cells/well, 1% FBS, and 48-hour treatment. The prostate cancer cells were seeded at 1.5×10^3 cells per well in a 96-well plate, and then incubated in an incubator for one day. Thereafter, the cells were treated with HS1001, HS1002, GV1001, and GnRH diluted to (300, 200, 100, and 50 μM) in fresh media. After 48-h incubation, an MTT reagent (3-(4,5-dimethylthiazol-2-yl)-2,5-diphenyltetrazolium bromide, Sigma-Aldrich, M6494) was added, and subsequently the plate was shielded from light and kept in an incubator for 3 h. Thereafter, the MTT solution was discarded, and 100 μL of dimethyl sulfoxide (DMSO, 99.9%, HPLC grade, DAEJUNG CHEMICALS & METALS, 3047-2304) was added to each well, and subsequently the plate was shielded from light and then left at room temperature for 20 min. After that, the absorbance was measured at 540 nm using a microplate reader.
compound,measurement,setting,value
CCNC(=O)[C@@H]1CCCN1C(=O)[C@@H](NC(=O)[C@H](Cc1ccccc1)NC(=O)[C@H](CCCNC(=N)N)NC(=O)[C@H](CC(C)C)NC(=O)[C@H](CCCNC(=N)N)NC(=O)[C@H](Cc1ccc(O)cc1)NC(=O)[C@H](CO)NC(=O)[C@H](Cc1c[nH]c2ccccc12)NC(=O)[C@H](Cc1c[nH]cn1)NC(=O)[C@@H]1CCC(=O)N1)[C@@H](C)CC [HS1002],expression of c-Myc in tumor tissue,[1],significantly downregulated
same,expression of p-AKT in tumor tissue,[1],significantly downregulated
same,expression of p-ERK1/2 in tumor tissue,[1],significantly downregulated
same,cytotoxicity to prostate cancer cells,[2],cytotoxicity to prostate cancer cells was highest
